Results taken from patent US11383003B2, “Water soluble farnesol analogs and their use” (Kimberly-Clark Worldwide, Inc., priority 2012, dated 2022).

Experiments:
C. albicans SC5314 = assay: Germ tube formation (GTF %) in vitro screening, GlcNAc-triggered differentiation assay; type: cell-based, Candida albicans
Method: Based on the results in FIG. 3, single cell suspensions of SC5314 was prepared as follows. Stock culture of C. albicans SC5314 was streaked onto YPD agar (YPDA) and incubated at 30° C. overnight. Single colonies were subcultured in YPD broth (YPDB) and incubated 30° C., 200 rpm overnight. Overnight culture in YPDB was subcultured in YPD broth again and incubated 30° C., 200 rpm 48 h. Cells were collected by centrifugation (4000 g 10 min) at 4° C., washed three times with sterile water, and then resuspended in sterile water a final concentration of 10^9 colony-forming unit/ml (cfu/ml). The suspension were stored at 4° C. at least 1 d, then subcultured into YPDB to a final concentration of 10^6 cfu/ml. After 48 h incubation, cell suspension was examined under the microscope for single cell percentage. When the single cell percentage exceeded 80%, cells were collected and washed three times with water, then resuspended in water to a final concentration of 10^9 cfu/ml, and stored at 4° C. for no more than a month.
Two approaches were taken to determine the percentage of cells with germ tubes formed (GTF %). One way was to count the total cells at the start of incubation, and count the ungerminated cells after incubation, then calculate the GTF % as (1—ungerminated cells/total cells at 0 h)*100. Another way was to store the samples at 15° C. for 20 h after incubation, then count the germinated cells and total cells after disaggregation, then calculated the GTF % as (germinated cells/total cells after storage)*100. […] Therefore, for practical purposes, the GTF % was determined by the first method, that is, GTF %=(1—ungerminated cells/total cells at 0 h)*100, for the in vitro screening discussed herein.
A screening medium, containing 11 mM imidazole buffer, 3 mM MgSO4, and 2.6 mM N-acetyl-D-glucosamine (GlcNAc) has been used to study the effect of farnesol analogs on the germ tube formation of C. albicans. Here, the germ tube formation of C. albicans in modified screening media was assessed with various concentrations of imidazole buffer (10 mM, 30 mM and 50 mM) and MgSO4 (0.5 mM, 1.5 mM and 3 mM). […] It took 2 h to 3 h for the GTF % to reach above 80%. For practical purposes, the screening medium, containing 11 mM imidazole buffer, 0.5 mM MgSO4, and 2.6 mM N-acetyl-D-glucosamine (GlcNAc) was adopted for in vitro screening the quorum sensing inhibitory effect of farnesol compounds.
The in vitro screening assay was based on the N-acetylglucosamine (GlcNAc)-triggered differentiation assay (Hornby et al., “Quorum sensing in the dimorphic fungus Candida albicans is mediated by farnesol;” Applied and Environmental Microbiology 67:2982-2992; 2001), which included 0.56 ml of 0.1 M imidazole buffer (pH 6.5), 0.15 ml of 0.1 M MgSO4, 0.13 ml of 0.1 M GlcNAc, and 4.16 ml of sterilized water. Bioassays of quorum sensing candidates were conducted by the addition of the chemical, as a solution in 100% methanol, to the bioassay media; the final concentration of methanol was no greater than 1%.

C. elegans glp4; sek1 = assay: Toxicity: death rate of C. elegans glp4; sek1 fed on E. coli OP50; conditions: for Death rate (%): 2 mM, worms fed on E. coli OP50, 25° C.; for toxicity to C. elegans fed on E. coli OP50 (in words): in vivo
Method: The toxicity of the selected compounds/products were tested using the C. elegans glp4; sek1 fed on E. coli OP50 (Table 5).
Stock cultures of C. albicans SC 5314 was subcultured into 3 ml of YPD broth and incubated at 30° C. Then the overnight culture in broth was spread onto YPD agar, and incubated at 30° C. The 24 h old lawn of SC5314 was used to feed worms for 2 h at 25° C. The control were worms fed on OP50.
The worms were washed off the YPD plates and washed twice with M9 buffer. The worms were resuspended in screening media, M9 buffer with 0.3% Tween 80. The worm suspension (50 μl) was dispensed into the wells of 96-well plates, 20-30 worms/well. Aliquots (50 μl) of compounds in screening media were added to wells, 5 wells each compound. The 96 well plates were incubated at 25° C. for up to 5 days. Live and dead worms were counted during incubation, and the death rates of worms were calculated.

[1] = system: C. elegans glp4; sek1 infected with C. albicans SC5314; assay: Death rate of C. elegans glp4; sek1 infected with C. albicans SC5314, 96 well plates; type: in vivo, Caenorhabditis elegans; conditions: for % change in the death rate compared to the control: 25° C.
Method: Caenorhabditis elegans glp4; sek1 was used as the model for […]. Breger et al. (Breger, J.; Fuchs, B. B.; Aperis, G.; Moy, T. I., Ausubel, F. M., Mylonakis, E.; “Antifungal chemical compounds identified using a C. elegans pathogenicity assay.” PLoS Pathogens 3: 168-178; 2007) reported that the glp-4 mutation rendered the strain incapable of producing progeny at 25° C., and the sek-1 mutation enhanced the sensitivity of the strain to various pathogens, thereby decreasing the time for screening assays. It was observed that no progenies was produced by the Caenorhabditis elegans glp4; sek1 strain after 3 d incubation at 25° C.
The synchronization of C. elegans was achieved by collecting the eggs and arresting the larvae at L1 stage. The commonly used bleach treatment was able to release the eggs from the adult worms. However, it was observed that the released eggs were not always able to hatch after treated with sodium hypochlorite (0.2, 0.3, 0.4, 0.5, 0.7 or 1%) for 3-5 min. A modified egg laying method was developed to synchronize worms to L1 stage. In brief, stock cultures of C. elegans glp4; sek1, maintained on Nematode Growth Media plates (NGM plates), were subcultured onto NGM plates with OP 50 and incubated at 15° C. for 6-9 days. Then a chunk (1 cm^2) of agar with gravid adults was subcultured again onto NGM plates with OP50 and incubated at 15° C. After incubation of 3-7 days, the worms were gently washed off with 3 ml of M 9 buffer on the rotating platform (100 rpm). The plate was tilted on its lid to allow the liquid and worms drain to one side of the plate. The liquid and worms were aspirated off. The plate was washed again with M9 buffer three more times to remove OP50 as much as possible. After washing, the plate was incubated at 25° C. overnight to let the eggs hatch overnight. Since there was no OP50, the larvae were arrested at the L1 stage. The live C. elegans glp4; sek1 was quite curvy; whereas the dead C. elegans glp4; sek1 tended to be straight, and in most cases the dead worms with the hyphae of C. albicans pieced through the body. The curvy shape and movement after shaking were used as the criteria for live.
The In vitro screening assay, based on the method of Tampakakis et al (Tampakakis, E.; Okoli, I.; Mylonakis, E.; “A C. elegans-based, whole animal, in vivo screen for the identification of antifungal compounds.” Nature Protocols 3:1925-1931; 2008), is described as follows:
L1 worms, which were prepared by the modified egg-laying method, were collected by centrifugation at 675 g for 30 s at room temperature, and the supernatant was removed. Worms were resuspended in M 9 buffer and inoculated on NGM agar plates with OP50, ˜1000 worms per plate. After 2-3 days incubation at 25° C., the worms were washed off with M 9 buffer for the […] assay.
The control were worms fed on OP50.

[2] = 0.4 mM to 3 mM (the tested four concentrations)
[3] = 2.0 mM, 4 days, two replicates (* three)
[4] = 2.0 mM, 5 days, two replicates (* three)
[5] = key finding, no concentration stated

Compound	GTF % (mean ± SEM, n = 2) (C. albicans SC5314; 100 μM, * one replicate)	GTF % (mean ± SEM, n = 2) (C. albicans SC5314; 200 μM)	Death rate (%) (C. elegans glp4; sek1)	% change in the death rate compared to the control ([1]; 0.4 mM, 4 days, two replicates)	% change in the death rate compared to the control ([1]; 0.4 mM, 5 days, two replicates)	% change in the death rate compared to the control ([1]; 1.0 mM, 4 days, two replicates)	% change in the death rate compared to the control ([1]; 1.0 mM, 5 days, two replicates)	% change in the death rate compared to the control [1, 3]	% change in the death rate compared to the control [1, 4]	% change in the death rate compared to the control ([1]; 3.0 mM, 4 days, two replicates)	% change in the death rate compared to the control ([1]; 3.0 mM, 5 days, two replicates)	further results
C=CC(C)(O)CC/C=C(\C)CCC=C(C)C (stereo not drawn) [trans-nerolidol, reference compound]	92.4* %	51.6 ± 1.8%	23%	11 ± 4%	4 ± 5%	3 ± 7%	−8 ± 5%	25 ± 10%	10 ± 2%	7 ± 0%	9 ± 9%	toxicity to C. elegans fed on E. coli OP50 (in words) (C. elegans glp4; sek1): toxic to the worm; effect on death rate of infected C. elegans (in words) [1, 2]: increased the death rate of the worm significantly
CC(C)=CCC/C(C)=C/CC/C(C)=C/COC(=O)CCC(=O)OCCCCO [#2 synthesized analog]	71.2 ± 2.9%	33.9 ± 0.6%	4 ± 0.6%	−36 ± 4%	−38 ± 2%	−28 ± 5%	−29 ± 10%	−39 ± 11%	−39 ± 11%	−40 ± 0%	−40 ± 4%	effect on death rate of infected C. elegans (in words) [1, 2]: reduced the death rate significantly; effect on death rate of infected C. elegans (in words) [1, 5]: significantly reduced the death rate
O=C(O)Cc1ccccc1O [2-hydroxy phenyl acetic acid]	90.3* %	71.3 ± 2.5%										
COc1cc(CCN)ccc1O [3-Methoxy-4-hydroxy-phenylethyl amine]	95.7* %	86.4 ± 3.3%										
OC=Cc1ccccc1 [β-phenylethenol]	91.7* %	84.5 ± 0.3%										
CC(C)=CCC/C(C)=C/CC/C(C)=C/COC(=O)CCC(=O)O [#1 synthesized analog]	55.9 ± 8.2%	31.2 ± 5.0%	3.3 ± 1.2%	−43 ± 8%	−30 ± 2%	−33 ± 5%	−29 ± 11%	−23 ± 4%	−34 ± 11%	20 ± 3%	10 ± 9%	effect on death rate of infected C. elegans (in words) ([1]; 0.4 mM to 2 mM): significantly reduced the death rate; effect on death rate of infected C. elegans (in words) ([1]; 3 mM): increased the death rate; effect on death rate of infected C. elegans (in words) [1, 5]: significantly reduced the death rate
OCCc1ccc(O)c(O)c1 [hydroxytyrosol]	78.0* %	84.9 ± 0.1%										
OC[C@H]1O[C@@H](OCCc2ccc(O)cc2)[C@H](O)[C@@H](O)[C@@H]1O [salidroside]	93.2* %	78.0 ± 5.9%										
CC(=O)OCC=C(C)CCC=C(C)CCC=C(C)C [farnesyl acetate, reference compound]	51.9 ± 2.1%	36.8 ± 0.8%	12%	10 ± 6%	4 ± 3%	27 ± 7%	15 ± 7%	21 ± 5%	9 ± 2%	24 ± 9%	7 ± 10%	toxicity to C. elegans fed on E. coli OP50 (in words) (C. elegans glp4; sek1): toxic to the worm; effect on death rate of infected C. elegans (in words) [1, 2]: increased the death rate of the worm significantly
CC(C)=CCC/C(C)=C/CC/C(C)=C/COCCO [#7 synthesized analog]	72.6 ± 1.7%	58.8 ± 2.1%										
CC(C)=CCC/C(C)=C/CC/C(C)=C/COCCCO [#6 synthesized analog]	75.1 ± 0.5%	51.1 ± 3.2%										
CC(C)=CCC/C(C)=C/CC/C(C)=C/CO[C@@H]1C(O)C(O)OC(CO)C1O (some centres unmarked) [#8 synthesized analog]	76.6 ± 0.3%	66.3 ± 0.6%										
O=C(O)Cc1ccc(O)cc1 [4-hydroxy phenyl acetic acid]	93.1* %	86.2 ± 1.8%										
